Results from patent publication US10196386B2, “Compounds having muscarinic receptor antagonist and beta2 adrenergic receptor agonist activity” (priority 2016, dated 2019).

How the values were obtained:
[1] = biological target: T1, Human M3 receptor (Homo sapiens, UniProt P20309); assay: biochemical; type: binding; settings: read-out: M3 Range
T1 construct: purchased Perkin Elmer

[2] = biological target: T2, Human β2 adrenoceptor (Homo sapiens, UniProt P07550); assay: β2 adrenoceptor radioligand binding assay
T2 construct: purchased Perkin Elmer
How it was run: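 Human β2 receptor membranes incubated 1 h at room temperature with 0.3 nM [125I]cyanopindolol and compound in pH 7.4 HEPES buffer (0.5% DMSO); 2 μM s-propranolol defined non-specific binding. Bound label counted after filtration; IC50 from competition curves, converted to Ki via Cheng–Prusoff.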

T1 sequence (P20309 whole entry): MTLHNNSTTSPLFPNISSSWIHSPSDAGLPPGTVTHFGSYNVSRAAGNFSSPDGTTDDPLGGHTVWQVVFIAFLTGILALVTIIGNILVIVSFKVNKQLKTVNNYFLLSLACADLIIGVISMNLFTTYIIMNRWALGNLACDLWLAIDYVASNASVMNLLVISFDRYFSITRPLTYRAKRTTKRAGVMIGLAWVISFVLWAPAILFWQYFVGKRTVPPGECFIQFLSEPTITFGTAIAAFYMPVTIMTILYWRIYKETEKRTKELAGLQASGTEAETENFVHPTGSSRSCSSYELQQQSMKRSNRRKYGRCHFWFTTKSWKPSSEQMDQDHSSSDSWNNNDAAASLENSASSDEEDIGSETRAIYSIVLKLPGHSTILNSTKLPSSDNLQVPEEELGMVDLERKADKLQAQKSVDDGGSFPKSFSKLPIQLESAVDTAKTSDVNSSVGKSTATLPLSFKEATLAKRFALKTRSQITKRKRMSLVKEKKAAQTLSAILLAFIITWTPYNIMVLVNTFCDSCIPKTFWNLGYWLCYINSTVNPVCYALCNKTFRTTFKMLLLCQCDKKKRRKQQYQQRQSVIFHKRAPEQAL
T2 sequence (P07550 whole entry): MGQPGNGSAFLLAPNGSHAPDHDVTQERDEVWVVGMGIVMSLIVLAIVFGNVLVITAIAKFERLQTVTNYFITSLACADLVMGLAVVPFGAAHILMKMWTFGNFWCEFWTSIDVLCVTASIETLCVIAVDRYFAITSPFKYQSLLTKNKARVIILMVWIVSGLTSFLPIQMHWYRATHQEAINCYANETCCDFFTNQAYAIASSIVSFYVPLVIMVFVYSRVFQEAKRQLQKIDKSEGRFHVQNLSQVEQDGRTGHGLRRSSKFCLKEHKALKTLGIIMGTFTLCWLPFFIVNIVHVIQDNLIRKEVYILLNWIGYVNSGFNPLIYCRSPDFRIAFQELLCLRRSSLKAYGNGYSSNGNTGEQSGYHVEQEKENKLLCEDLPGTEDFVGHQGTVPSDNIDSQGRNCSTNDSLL

Row | Structure (SMILES) | IC50 [1] [nM] | IC50 [2] [nM]
1 | COc1cc(C(=O)N2CC=C(c3cccc([C@](O)(C(=O)OCC4CCN(Cc5ccccc5)CC4)c4ccccc4)c3)CC2)ccc1CNC[C@H](O)c1ccc(O)c2[nH]c(=O)ccc12 [Compound 3C, (1-Benzylpiperidin-4-yl)methyl (S)-2-hydroxy-2-(3-(1-(4-((((R)-2-hydroxy-2-(8-hydroxy-2-oxo-1,2-dihydroquinolin-5-yl)ethyl)amino)methyl)-3-methoxybenzoyl)-1,2,3,6-tetrahydropyridin-4-yl)phenyl)-2-phenylacetate] | < 0.3 | < 0.3
2 | COc1c(CNC[C@H](O)c2ccc(O)c3[nH]c(=O)ccc23)ccc(C(=O)N2CC=C(c3cccc([C@](O)(C(=O)OCC4CCN(Cc5ccccc5)CC4)c4ccccc4)c3)CC2)c1F [Compound 3D, (1-Benzylpiperidin-4-yl)methyl (S)-2-(3-(1-(2-fluoro-4-((((R)-2-hydroxy-2-(8-hydroxy-2-oxo-1,2-dihydroquinolin-5-yl)ethyl)amino)methyl)-3-methoxybenzoyl)-1,2,3,6-tetrahydropyridin-4-yl)phenyl)-2-hydroxy-2-phenylacetate] | 0.3 to 3 | 0.3 to 3
3 | COc1cc(CNC[C@H](O)c2ccc(O)c3[nH]c(=O)ccc23)ccc1C(=O)N1CC=C(c2cccc([C@](O)(C(=O)OCC3CCN(Cc4ccccc4)CC3)c3ccccc3)c2)CC1 [Compound 3E, (1-Benzylpiperidin-4-yl)methyl (S)-2-hydroxy-2-(3-(1-(4-((((R)-2-hydroxy-2-(8-hydroxy-2-oxo-1,2-dihydroquinolin-5-yl)ethyl)amino)methyl)-2-methoxybenzoyl)-1,2,3,6-tetrahydropyridin-4-yl)phenyl)-2-phenylacetate] | < 0.3 | < 0.3
4 | O=C(c1ccc(CCNC[C@H](O)c2ccc(O)c3[nH]c(=O)ccc23)cc1)N1CC=C(c2cccc([C@](O)(C(=O)OCC3CCN(Cc4ccccc4)CC3)c3ccccc3)c2)C1 [Compound 3F, (1-Benzylpiperidin-4-yl)methyl (S)-2-hydroxy-2-(3-(1-(4-(2-(((R)-2-hydroxy-2-(8-hydroxy-2-oxo-1,2-dihydroquinolin-5-yl)ethyl)amino)ethyl)benzoyl)-2,5-dihydro-1H-pyrrol-3-yl)phenyl)-2-phenylacetate] | 0.3 to 3 | < 0.3
5 | O=C(c1ccc(CNC[C@H](O)c2ccc(O)c3[nH]c(=O)ccc23)cc1)N1CC=C(c2cccc([C@](O)(C(=O)OCC3CCN(Cc4ccccc4)CC3)c3ccccc3)c2)C1 [Compound 3G, (1-Benzylpiperidin-4-yl)methyl (S)-2-hydroxy-2-(3-(1-(4-((((R)-2-hydroxy-2-(8-hydroxy-2-oxo-1,2-dihydroquinolin-5-yl)ethyl)amino)methyl)benzoyl)-2,5-dihydro-1H-pyrrol-3-yl)phenyl)-2-phenylacetate] | 0.3 to 3 | < 0.3
6 | COc1cc(C(=O)N2CCC=C(c3cccc([C@](O)(C(=O)OCC4CCN(Cc5ccccc5)CC4)c4ccccc4)c3)C2)ccc1CNC[C@H](O)c1ccc(O)c2[nH]c(=O)ccc12 [Compound 3H, (1-Benzylpiperidin-4-yl)methyl (S)-2-hydroxy-2-(3-(1-(4-((((R)-2-hydroxy-2-(8-hydroxy-2-oxo-1,2-dihydroquinolin-5-yl)ethyl)amino)methyl)-3-methoxybenzoyl)-1,2,5,6-tetrahydropyridin-3-yl)phenyl)-2-phenylacetate] | 0.3 to 3 | < 0.3
7 | O=C(c1ccc(CNC[C@H](O)c2ccc(O)c3[nH]c(=O)ccc23)cc1)N1CCC=C(c2cccc([C@](O)(C(=O)OCC3CCN(Cc4ccccc4)CC3)c3ccccc3)c2)C1 [Compound 3I, (1-Benzylpiperidin-4-yl)methyl (S)-2-hydroxy-2-(3-(1-(4-((((R)-2-hydroxy-2-(8-hydroxy-2-oxo-1,2-dihydroquinolin-5-yl)ethyl)amino)methyl)benzoyl)-1,2,5,6-tetrahydropyridin-3-yl)phenyl)-2-phenylacetate] | 0.3 to 3 | 0.3 to 3
